# Reference: US20100055116A1, “Methods and Compositions for Targeting c-Rel” (priority 2006, published 2010)
# Peptide text beside a SMILES is read from it. * marks the point of attachment. Cbz = O=C(OCc1ccccc1)*; CH2F = FC*
# B1: CD28RE kB site 20-mer FITC probe (dsDNA)
# DNA 1: TCTGGAATTTCTTTAAACCC
# DNA 2: GGGTTTAAAGAAATTCCAGA
# B2: CD28RE EMSA probe/unlabeled competitor (dsDNA)
# DNA 1: TCTGGAATTTCTTTAAACCC
# DNA 2: GGGTTTAAAGAAATTCCAGA
# Columns and labels:
# [1] = system: Pten-mutant and control B cells; experiment: Mitochondrial potential by JC-1 staining; format: cell-based, mouse; conditions: anti-IgM treatment, within 12 hours
# Method: B cells were cultured to a density of 0.5−1.0×10^6 cells/ml. For each condition, 1 ml of cells was treated with the appropriate agent for the appropriate length of time as shown in FIG. 8C. Mitochondrial potential was assessed by using the fluorescent potentiometric dye JC-1 (5,5′,6,6′,-tetrachloro-1,1′,3,3′-tetraethylbenzimidazolylcarbocyanine iodide, Molecular Probe). JC-1 is a novel cationic carbocyanine dye that accumulates in mitochondria. The dye exists as a monomer at low concentrations and yields green fluorescence, similar to fluorescein. […] These characteristics make JC-1 a sensitive marker for mitochondrial membrane potential. Briefly, 0.3 ml of the cells were mixed with 0.3 ml of staining solution (complete medium containing 0.5 μg/1 ml JC-1). Cells were stained for 30 min in a 37° C. incubator (5% CO2). After staining, cells were collected at room temperature and washed once in 1×PBS. The cell pellet was then resuspended in PBS (pre-warmed to 37° C.), and JC-1 fluorescence was analyzed on a Becton-Dickinson FACS using Cell-Quest software.
# Pten-mutant B cells = experiment: Proliferation and survival assays (CFSE, propidium iodide staining) with anti-IgM; format: cell-based, mouse; conditions: for division of Pten-mutant cells: 3 days of stimulation with BCR signal, CFSE
# From the text: Pten(+/−) mice and Pten^flox/+ mice (background strain C57/BL6) were provided by Dr. Pandolfi PP (Di Cristofano et al., 1999 Science 285:2122). To generate B cell-specific Pten-deficient mice, Pten^flox/+ mice were crossed with CD19^cre/+ transgenic mice (purchased from Jackson lab). Offspring carrying CD19^cre/+ and the floxed Pten mutation on both alleles (Pten^flox/flox CD19^Cre/+), and the wild-type Pten gene (Pten^+/+ CD19^Cre/+) were used for analysis as homozygous mutant, wild-type mice, respectively. The mice were maintained under specific pathogen-free conditions in the animal colony of Weill Medical college of Cornell University. Pten^flox/flox CD19^Cre/+ mice were crossed with c-Rel-deficient mice (Tumang et al., 1998 Eur J Immunol 28:4299) to generate the double deficient mice.
# For propidium iodide staining assay, B-cells were cultured in 10 μg/ml anti-IgM or 10 μg/ml anti-CD40 or 10 μg/ml LPS. At the indicated time points, cells were collected and stained with a solution containing 50 μg/ml propidium iodide, 20 ng/ml RNase A, 0.1% Triton X-100, and 0.1% sodium citrate. Duplicate samples were then analyzed on a Becton-Dickinson FACS using Cell-Quest software, and the percentage of apoptotic cells (<2N DNA content) or S and G2/M phase cells (>2N DNA content) quantified. For ^3H-thymidine incorporation assays, B-cells were plated at 1×10^5 cells per well in 96-well U-bottomed plates and cultured in complete media containing RPMI 1640, 10% heat inactivated FCS (DeWned; Hyclone, Logan, Utah), 2 mM L-glutamine, 1 mM non-essential amino acids, 100 μg/ml, penicillin/streptomycin, and 5×10^−5 M/L^−1 mercaptoethanol at 37° C. and 5% CO2. Where indicated, cells were stimulated with 10 μg/ml goat anti-mouse IgM F(ab′)2 (anti-IgM, Jackson ImmunoResearch Laboratories), or 10 μg/ml anti-CD40 (mAb 1C 10), or 10 μg/ml LPS. Six hours prior to the indicated time points, cultures were incubated with 0.5 μCi/well thymidine (Amersham), and then harvested onto Whatman Filters to determine proliferative responses by thymidine incorporation. […]
# immature B cells [2] = experiment: Anti-IgM induced apoptosis; format: cell-based, mouse; conditions: 50 mM inhibitor
# Method: Mature and immature B cells (>95% B220+) were isolated from untreated mice or sublethally irradiated mice by complement-mediated lysis and Percoll gradient as described previously, and cultured in RPMI 1640 media containing 10% fetal calf serum (FCS) (Cellgro), 1% penicillin, 1% streptomycin (both Life Sciences BRL), and 50 uM b-mercaptoethanol (Sigma). For caspase experiments, 2×10^6/ml B cells were plated per well in 24-well polystyrene flat-bottom plates (Corning) in 1000 ul of total culture volume. […]
# The following antibodies were used for FACS analysis: anti-CD24 (HSA), anti-CD21, anti-IgD, anti-IgM, and anti-B220 (RA3-6B2), labeled with R-phycoerythrin (PE), FITC or Allophyocyanin (APC), all purchased from Pharmigen. […] Duplicate samples were then analyzed by FACS (Becton-Dickinson) using CellQuest software, and the percentage of apoptotic cells (<2N DNA content) or S and G2/M phase cells (>2N DNA content) quantified. For PIP3 assays, PIP3 levels were measured using a biotin-labeled antibody against anti-PI-3,4,5-P3 (a gift from Dr. Paul Neilsen, Echelon, Salt Lake City, Utah) and FACS following a published protocol.
# immature B cells [3] = experiment: BCR-induced mitochondrial depolarization, JC-1 staining; format: cell-based, mouse; conditions: 50 mM inhibitor, anti-IgM
# Method: Mature and immature B cells (>95% B220+) were isolated from untreated mice or sublethally irradiated mice by complement-mediated lysis and Percoll gradient as described previously, and cultured in RPMI 1640 media containing 10% fetal calf serum (FCS) (Cellgro), 1% penicillin, 1% streptomycin (both Life Sciences BRL), and 50 uM b-mercaptoethanol (Sigma). For caspase experiments, 2×10^6/ml B cells were plated per well in 24-well polystyrene flat-bottom plates (Corning) in 1000 ul of total culture volume. The following combinations of agents were added for 12 hr or 24 hr at 37° C.: 10 mg/ml of goat anti-mouse IgM F(ab)2 (anti-IgM, Jackson ImmunoResearch Laboratories), 50 mM of z-VAD-fmk, a pan-caspase inhibitor, or 50 mM of z-LEHD-fmk, a specific […], or 50 mM of z-FA-fmk, a cathepsin B inhibitor (Enzyme System Products). For the PI3K assay, 5×10^6 B cells were plated per well in 24-well polystyrene flat-bottom plates (Corning) in 2 ml final culture volume, with 10 mg/ml of goat anti-mouse IgM F(ab′)2 added for the indicated time at 37° C. […]
# Cells were cultured at a density of 0.5−1.0×10^6 cells/ml. […] The dye exists as a monomer at low concentrations and yields green fluorescence, similar to fluorescein. […] The cell pellet was then resuspended in PBS, and JC-1 fluorescence analyzed by FACS.
# c-Rel (homodimer) [4] = target: T1, c-Rel (homodimer) (Homo sapiens, UniProt Q04864 Q04864:2-619); experiment: FP; 10 nM probe; FP saturated at 128 nM c-Rel; Kd said to be larger than by EMSA but no number in text; abolished by GST-IkBa; conditions: tags: C-terminal His, E. coli BL-21 Lys (DE3); full-length or subdomain (not specified); chain copies: 2 stated; label: 5'-FITC
# T1 sequence: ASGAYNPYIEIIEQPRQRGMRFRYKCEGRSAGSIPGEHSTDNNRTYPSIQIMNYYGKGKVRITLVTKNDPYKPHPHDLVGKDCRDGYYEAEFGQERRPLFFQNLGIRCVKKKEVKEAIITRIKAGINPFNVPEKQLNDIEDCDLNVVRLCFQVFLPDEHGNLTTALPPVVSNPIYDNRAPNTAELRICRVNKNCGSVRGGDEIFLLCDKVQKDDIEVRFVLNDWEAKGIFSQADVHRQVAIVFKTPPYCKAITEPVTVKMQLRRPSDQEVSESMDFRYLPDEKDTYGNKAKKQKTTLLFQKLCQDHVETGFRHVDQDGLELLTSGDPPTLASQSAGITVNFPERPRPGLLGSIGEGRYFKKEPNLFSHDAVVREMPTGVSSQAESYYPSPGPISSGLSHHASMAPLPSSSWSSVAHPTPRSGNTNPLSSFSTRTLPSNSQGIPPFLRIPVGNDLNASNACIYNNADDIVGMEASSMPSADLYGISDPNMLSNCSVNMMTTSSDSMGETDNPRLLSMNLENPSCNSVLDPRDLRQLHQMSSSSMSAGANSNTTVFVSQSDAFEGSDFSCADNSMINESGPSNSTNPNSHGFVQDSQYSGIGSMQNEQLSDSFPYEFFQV
# Method: (§1) According to the EMSA data, the concentrations of FITC-labeled DNA probe and c-Rel protein used in FP screen assay were optimized. Initially, the fluorescently labeled probe was added in different concentrations (5 nM, 10 nM, 100 nM) while c-Rel protein concentration (2000 nM) was constant, and the reactions were incubated for 15-30 minutes at room temperature, and then transferred to the wells of 384-well plate (20 μl/well). The FP values were measured using FUSION Universal Microplate Analyzer (Perkin Elmer, PE). […] In most cases, there is an increase in FP, with FP signals saturated in the presence of 128 nM of c-Rel. The dissociation constant (Kd) calculated using this method is larger than that observed using EMSA.
# It was next investigated whether this assay could detect a known endogenous inhibitor (IkBα) of c-Rel activity. […] Recombinant GST-IkBα previously generated (final concentration is 150 nM) was added to a binding reaction consisting of 10 nM FITC-CD28RE and 100 nM c-Rel. […] Thus, this assay detected specific inhibitors that function by directly binding c-Rel protein and inducing a conformation change. Moreover, consistent with the scatter data distribution shown in FIG. 3d, z factor, one assay performance indicator, was also evaluated. […]
# c-Rel (homodimer) [5] = target: T1, c-Rel (homodimer); experiment: competition; unlabeled CD28RE returns FP to basal level at 128 nM; conditions: tags: C-terminal His, E. coli BL-21 Lys (DE3); full-length or subdomain (not specified); chain copies: 2 stated
# Method: as §1
# To exclude the possibility that non-specific interaction of c-Rel protein with DNA molecules contributes to the increase in FP value, a cold competition experiment was performed. […] However, a control DNA molecule, the unlabeled Oct1 (20 mers) in the same conditions as applied to the cold CD28RE probe, had no effect on FP value. Thus, this assay specifically and quantitatively measured interactions in the interface between c-Rel protein and CD28 RE.
molecule,measurement,setting,value
Cc1ccc(S(=O)(=O)/C=C/C#N)cc1 [Bay 11],mitochondrial depolarization,[1],mitochondrial depolarization
same,division of Pten-mutant cells,Pten-mutant B cells,completely blocked
same,cell apoptosis,Pten-mutant B cells; propidium iodine staining,significant cell apoptosis
CC(C)C[C@H](NC(=O)[C@H](Cc1ccccc1)NC(=O)c1cnccn1)B(O)O [Velcade],mitochondrial depolarization,[1],mitochondrial depolarization
same,division of Pten-mutant cells,Pten-mutant B cells,completely blocked
CC(NC(=O)[C@H](Cc1ccccc1)NC(=O)OCc1ccccc1)C(=O)CF (stereo partly shown) [z-FA-fink],anti-IgM induced apoptosis,immature B cells [2],failed to inhibit
COC(=O)CC[C@H](NC(=O)[C@H](CC(C)C)NC(=O)OCc1ccccc1)C(=O)N[C@@H](Cc1cnc[nH]1)C(=O)N[C@@H](CC(=O)OC)C(=O)CF [z-LEHD-fmk] (Cbz-LE(OMe)HD(OMe)-CH2F),BCR-induced changes in DY (mitochondrial membrane potential),immature B cells [3],Neither inhibitor reversed
COC(=O)C[C@H](NC(=O)[C@H](C)NC(=O)[C@@H](NC(=O)OCc1ccccc1)C(C)C)C(=O)CF [z-VAD-fmk] (Cbz-Val-Ala-Asp(OMe)-CH2F),BCR-induced changes in DY (mitochondrial membrane potential),immature B cells [3],Neither inhibitor reversed
B1,binding result,c-Rel (homodimer) [4],binds
B2,binding result,c-Rel (homodimer) [5],binds
